Read-outs that look alike come from different tables or passages of the source.
How the values were obtained:
Type in all cases: biochemical
[1] = biological target: T1, IKKe (Homo sapiens, UniProt Q14164); test: Kinase profiling IKKe; conditions: for remaining activity at 100 µM: read-out: residual kinase activity, IKKe
T1 sequence (Q14164 1-716): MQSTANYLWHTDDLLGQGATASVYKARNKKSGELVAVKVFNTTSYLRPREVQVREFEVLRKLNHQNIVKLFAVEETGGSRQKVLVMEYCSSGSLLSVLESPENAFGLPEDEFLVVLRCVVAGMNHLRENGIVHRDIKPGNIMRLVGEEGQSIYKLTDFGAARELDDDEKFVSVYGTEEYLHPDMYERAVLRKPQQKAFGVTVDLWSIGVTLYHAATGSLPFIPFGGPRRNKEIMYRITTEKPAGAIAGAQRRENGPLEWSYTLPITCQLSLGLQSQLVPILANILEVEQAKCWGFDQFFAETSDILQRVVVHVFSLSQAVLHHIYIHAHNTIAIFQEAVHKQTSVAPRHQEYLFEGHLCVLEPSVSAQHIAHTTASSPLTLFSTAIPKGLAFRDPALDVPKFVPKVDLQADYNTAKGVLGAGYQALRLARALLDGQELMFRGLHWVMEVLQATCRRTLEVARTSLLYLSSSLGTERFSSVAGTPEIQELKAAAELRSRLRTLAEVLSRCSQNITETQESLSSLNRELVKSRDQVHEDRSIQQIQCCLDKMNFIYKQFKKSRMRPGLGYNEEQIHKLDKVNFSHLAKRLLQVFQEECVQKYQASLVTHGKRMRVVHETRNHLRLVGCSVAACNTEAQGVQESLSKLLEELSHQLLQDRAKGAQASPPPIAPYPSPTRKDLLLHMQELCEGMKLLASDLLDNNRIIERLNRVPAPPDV
Description: (§1) Any value less that 25 is considered to be highly significant inhibition.

[2] = biological target: T2, EPH-B3 (Homo sapiens, UniProt P54753); test: Kinase profiling EPH-B3; conditions: for remaining activity at 100 µM: read-out: residual kinase activity, EPH-B3
T2 sequence (P54753 34-998): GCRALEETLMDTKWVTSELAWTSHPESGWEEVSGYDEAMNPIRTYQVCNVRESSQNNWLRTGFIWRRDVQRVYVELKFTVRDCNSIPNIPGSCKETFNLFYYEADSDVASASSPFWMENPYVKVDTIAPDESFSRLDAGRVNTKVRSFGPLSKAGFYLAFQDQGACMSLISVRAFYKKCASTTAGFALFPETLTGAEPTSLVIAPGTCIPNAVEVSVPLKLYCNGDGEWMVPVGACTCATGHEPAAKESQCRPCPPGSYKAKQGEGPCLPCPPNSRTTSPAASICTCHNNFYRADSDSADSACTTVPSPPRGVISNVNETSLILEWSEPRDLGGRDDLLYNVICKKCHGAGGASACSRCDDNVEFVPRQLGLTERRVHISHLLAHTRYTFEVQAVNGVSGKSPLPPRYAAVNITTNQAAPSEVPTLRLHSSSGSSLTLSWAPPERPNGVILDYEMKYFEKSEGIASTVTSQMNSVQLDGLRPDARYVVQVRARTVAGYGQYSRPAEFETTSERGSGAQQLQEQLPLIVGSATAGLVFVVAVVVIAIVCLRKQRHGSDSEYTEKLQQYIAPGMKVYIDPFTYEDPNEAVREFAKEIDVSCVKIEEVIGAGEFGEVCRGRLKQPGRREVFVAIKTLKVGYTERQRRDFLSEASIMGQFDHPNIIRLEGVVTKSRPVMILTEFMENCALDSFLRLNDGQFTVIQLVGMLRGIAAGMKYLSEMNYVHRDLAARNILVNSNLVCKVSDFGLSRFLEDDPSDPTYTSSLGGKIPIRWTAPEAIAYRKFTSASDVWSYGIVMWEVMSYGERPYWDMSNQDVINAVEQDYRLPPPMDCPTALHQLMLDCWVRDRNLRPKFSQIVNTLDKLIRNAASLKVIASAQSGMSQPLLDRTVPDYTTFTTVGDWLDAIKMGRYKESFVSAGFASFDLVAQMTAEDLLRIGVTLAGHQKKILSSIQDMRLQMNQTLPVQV
Description: as §1

[3] = biological target: T3, BRSK2 (Homo sapiens, UniProt Q8IWQ3); test: Kinase profiling BRSK2; conditions: for remaining activity at 100 µM: read-out: residual kinase activity, BRSK2
T3 sequence (Q8IWQ3 1-736): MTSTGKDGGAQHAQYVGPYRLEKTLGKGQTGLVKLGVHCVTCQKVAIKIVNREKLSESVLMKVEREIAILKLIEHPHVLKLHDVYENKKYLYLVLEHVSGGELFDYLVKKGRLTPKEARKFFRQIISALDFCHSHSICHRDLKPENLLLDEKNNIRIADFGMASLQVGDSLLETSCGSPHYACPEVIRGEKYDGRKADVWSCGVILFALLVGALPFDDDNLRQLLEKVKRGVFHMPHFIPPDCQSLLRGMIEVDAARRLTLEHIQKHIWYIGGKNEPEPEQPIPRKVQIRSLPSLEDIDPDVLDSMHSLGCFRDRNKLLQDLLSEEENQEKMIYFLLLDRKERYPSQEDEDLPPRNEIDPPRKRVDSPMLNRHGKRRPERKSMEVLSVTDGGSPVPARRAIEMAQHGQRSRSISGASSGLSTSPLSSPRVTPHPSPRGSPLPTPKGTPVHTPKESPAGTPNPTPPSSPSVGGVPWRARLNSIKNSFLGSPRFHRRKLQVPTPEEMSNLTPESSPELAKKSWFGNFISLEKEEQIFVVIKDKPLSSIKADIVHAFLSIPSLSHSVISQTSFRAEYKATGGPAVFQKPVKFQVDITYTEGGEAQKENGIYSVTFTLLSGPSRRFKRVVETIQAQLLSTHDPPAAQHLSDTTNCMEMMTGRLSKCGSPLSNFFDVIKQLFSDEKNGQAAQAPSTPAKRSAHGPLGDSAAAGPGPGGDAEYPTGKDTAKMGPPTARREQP
Description: as §1

[4] = biological target: T4, NEK2a (Homo sapiens, UniProt P51955); test: Kinase profiling NEK2a; conditions: for remaining activity at 100 µM: read-out: residual kinase activity, NEK2a
T4 sequence (P51955 1-445): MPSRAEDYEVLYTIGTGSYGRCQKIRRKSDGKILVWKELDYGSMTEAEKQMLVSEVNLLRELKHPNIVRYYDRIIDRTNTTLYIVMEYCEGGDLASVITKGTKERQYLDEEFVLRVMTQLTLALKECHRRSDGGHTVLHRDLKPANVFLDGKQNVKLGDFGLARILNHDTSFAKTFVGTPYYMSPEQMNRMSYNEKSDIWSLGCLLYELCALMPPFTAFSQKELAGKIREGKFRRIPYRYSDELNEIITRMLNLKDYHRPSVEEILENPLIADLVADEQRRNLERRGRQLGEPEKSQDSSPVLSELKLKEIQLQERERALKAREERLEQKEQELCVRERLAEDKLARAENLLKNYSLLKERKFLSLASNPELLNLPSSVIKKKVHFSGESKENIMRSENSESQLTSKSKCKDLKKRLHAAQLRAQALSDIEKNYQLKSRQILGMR
Description: as §1

[5] = 100 micromolar inhibitor concentration, 100 is no change
[6] = 100 micromolar inhibitor, 100 = no change

| SMILES | remaining activity at 100 µM [1, 5] [%] | remaining activity at 100 µM [2, 5] [%] | remaining activity at 100 µM [3, 5] [%] | remaining activity at 100 µM [4, 5] [%] | residual kinase activity, IKKe [1, 5] | residual kinase activity, EPH-B3 [2, 5] | residual kinase activity, BRSK2 [3, 5] | residual kinase activity, NEK2a [4, 5] | other results |
| --- | --- | --- | --- | --- | --- | --- | --- | --- | --- |
| CC(=O)Nc1nc2cc(O)ccc2s1 [Compound 01-66, N-(5-hydroxybenzo[d]thiazol-2-yl)acetamide] | – | – | – | – | – | – | – | – | remaining activity at 100 µM [1]: 68%; remaining activity at 100 µM [2]: 83%; remaining activity at 100 µM [3]: 56%; remaining activity at 100 µM [4]: 85% |
| CC(=O)Nc1nc2ccc(O)cc2s1 [Compound 01-71] | 58 | 66 | 22 | 75 | – | – | – | – | – |
| CC(=O)Nc1nc2ccc(C(F)(F)F)cc2s1 [Compound 01-90] | 81 | 89 | 64 | 78 | – | – | – | – | – |
| CC(=O)Nc1nc2ccc(C#N)cc2s1 [Compound 01-94] | 64 | 72 | 67 | 60 | – | – | – | – | – |
| CC(=O)Nc1cccc(NC(=O)c2nc3ccc(O)cc3s2)c1 [Compound 03-07, N-(3-acetamidophenyl)-6-hydroxybenzo[d]thiazole-2-carboxamide] | – | – | – | – | – | – | – | – | remaining activity at 100 µM [1, 6]: 73%; remaining activity at 100 µM [2, 6]: 64%; remaining activity at 100 µM [3, 6]: 66%; remaining activity at 100 µM [4, 6]: 38% |
| O=C(Nc1nc2cc(O)ccc2s1)c1ccncc1 [Compound 03-11] | – | – | – | – | 69 | 76 | 81 | 93 | – |
| O=C(Nc1nc2ccc(O)cc2s1)c1ccccn1 [Compound 03-12] | – | – | – | – | 78 | 63 | 79 | 92 | – |
| O=C(Nc1nc2cc(O)ccc2s1)c1ccccn1 [Compound 03-13] | – | – | – | – | 63 | 44 | 80 | 89 | – |
| COc1ccc2sc(NC(C)=O)nc2c1 [Compound 03-21] | 91 | 106 | 95 | 93 | – | – | – | – | – |
| CC(=O)Nc1nc2ccccc2s1 [Compound 03-32] | – | – | – | – | 109 | 71 | 91 | 90 | – |
| O=C(Nc1nc2cc(O)ccc2s1)c1cccnc1 [Compound 03-33] | – | – | – | – | 81 | 108 | 82 | 99 | – |
| O=C(Nc1nc2ccc(O)cc2s1)c1ccccc1 [Compound 03-60] | – | – | – | – | 27 | 93 | 34 | 64 | – |
| CC(=O)Nc1nc2cc(C(F)(F)F)ccc2s1 [Compound 03-73] | 93 | 114 | 98 | 94 | – | – | – | – | – |
| CC(=O)Nc1nc2cc(C)ccc2s1 [Compound 03-76] | – | – | – | – | 89 | 107 | 79 | 95 | – |
| CC(=O)Nc1nc2cc(F)ccc2s1 [Compound 03-77] | 91 | 113 | 77 | 90 | – | – | – | – | – |
| O=C(Nc1nc2ccc(O)cc2s1)c1ccncc1 [Compound 08-42] | – | – | – | – | 47 | 88 | 74 | 79 | – |
| O=C(Nc1nc2ccc(O)cc2s1)c1cccnc1 [Compound 08-44] | – | – | – | – | 50 | 65 | 52 | 74 | – |
